Assay results taken from US20170145005A1, “KINASE INHIBITOR” (THE UNIVERSITY OF TOKYO, priority 2014, published 2017).

Columns and labels:
[1] = target: PIM-3 kinase (Homo sapiens, UniProt Q86V86); assay: Measurement of PIM-3 kinase inhibitory activity (fluorescent substrate peptide, capillary electrophoresis); type: biochemical; details: 30 μM ATP, 2 hours at room temperature
Description: 1.5 μM of fluorescent substrate peptide (FAM-AKRRRLSSLRA-COOH), 30 μM of ATP, and 0.0833 ng/μL of PIM-3 kinase were incubated with a compound for 2 hours at room temperature, and the Pim-3 kinase activity was measured. The reaction was quantified by separating the substrate and phosphorylation reaction product by capillary electrophoresis (using a Perkin-Elmer EZ reader II) based on the difference in their charges. The results are shown below in Tables 1 and 2.

[2] = tested on: PANC-1; assay: Growth inhibitory activity on human pancreatic cancer cell lines (Example 2, WST-8); type: cell-based; details: cultured for 72 hours, 2000 cells/well
Description: (§1) Two thousand cells of human pancreatic cancer cells lines (L3.6pl, MiaPaca-2, PANC-1, PCI35, PCI66) were seeded in a medium volume of 100 μL in each well of a 96-well microtiter plate. The medium was removed after 18 hours, and 100 μL/well of medium containing the test compound was added. Culture was continued for 72 or 96 hours. The medium containing the test compound was removed, and 100 μL/well of medium containing 10% WST-8 (Dojindo Laboratories Cell Counting kit-8) was added. After culturing for one hour, the OD 450 nm absorbance was measured, and the cell growth inhibitory activity was calculated. Furthermore, RPMI-1640 medium (Sigma) was used as the medium with 10% fetal calf serum (Invitrogen), 50 U/mL penicillin G (Sigma), and 50 μg/mL streptomycin (Sigma) added. The cell lines were cultured at 37° C. in a carbon dioxide incubator with a carbon dioxide concentration of 5%.
(§2) Tables 3 and 4 show the results of compound evaluation when cultured for 96 hours.

[3] = tested on: MiaPaca-2; assay: as above; type: cell-based; details: cultured for 72 hours, 2000 cells/well
Description: as §1, §2

[4] = tested on: L3.6pl; assay: as above; type: cell-based; details: cultured for 72 hours, 2000 cells/well
Description: as §1, §2

[5] = tested on: PANC-1; assay: Growth inhibitory activity on human pancreatic cancer cell lines (Example 4, WST-8); type: cell-based; details: Example 4: 72 hours, 3000 cells/well
Description: (§3) Three thousand cells of human pancreatic cancer cell lines (L3.6pl, MiaPaca-2, PANC-1, PCI35, and PCI66) were seeded in a medium volume of 90 μL in each well of a 96-well microtiter plate. After 24 hours, 10 μL/well of medium containing the test compound was added. Culture was continued for 72 hours, and 10 μL/well of WST-8 (Dojindo Laboratories Cell Counting kit-8) was added. After culturing for 2 hours, the OD 450 nm absorbance was measured, and the cell growth inhibitory effect was calculated. The cell lines were cultured in a carbon dioxide incubator with a carbon dioxide concentration of 5%.

[6] = tested on: MiaPaca-2; assay: as above; type: cell-based; details: MIA PaCa-2, Example 4: 72 hours, 3000 cells/well
Description: as §3

[7] = tested on: PCI35; assay: as above; type: cell-based; details: Example 4: 72 hours, 3000 cells/well
Description: as §3

[8] = tested on: PCI66; assay: as above; type: cell-based; details: Example 4: 72 hours, 3000 cells/well
Description: as §3

[9] = tested on: L3.6pl; assay: as above; type: cell-based; details: Example 4: 72 hours, 3000 cells/well
Description: as §3

Row | Compound | IC50 [1] [nM] | IC50 ([2]; Homo sapiens, PANC-1, 72 h) [nM] | IC50 ([3]; Homo sapiens, MIA PaCa-2) [nM] | IC50 ([4]; Homo sapiens, L3.6pl, 72 h) [nM] | further results
1 | COc1ccc2c(c1CN1C[C@@H](C)N[C@@H](C)C1)O/C(=C\c1n[nH]c3ncccc13)C2=O [Compound 10, (Z)-2-[(1H-pyrazolo[3,4-b]pyridin-3-yl)methylene]-7-[(cis-3,5-dimethylpiperazin-1-yl)methyl]-6-methoxybenzofuran-3(2H)-one] | 19 | 14000 | 3000 | 7500 | –
2 | COc1ccc2c(c1CN1CCN[C@@H](C)C1)O/C(=C\c1n[nH]c3ncccc13)C2=O [Compound 11, (S,Z)-2-[(1H-pyrazolo[3,4-b]pyridin-3-yl)methylene]-6-methoxy-7-[(3-methylpiperazin-1-yl)methyl]benzofuran-3(2H)-one] | 1.4 | 8300 | 3400 | 3500 | –
3 | COc1ccc2c(c1CN1[C@H](C)CNC[C@@H]1C)O/C(=C\c1n[nH]c3ncccc13)C2=O [Compound 13, (Z)-2-[(1H-pyrazolo[3,4-b]pyridin-3-yl)methylene]-7-[(cis-2,6-dimethylpiperazin-1-yl)methyl]-6-methoxybenzofuran-3(2H)-one] | 150 | 8400 | 2400 | 3500 | –
4 | COc1ccc2c(c1CC1CCNCC1)O/C(=C\c1n[nH]c3nc(C)ccc13)C2=O [Compound 16, (Z)-6-methoxy-2-[(6-methyl-1H-pyrazolo[3,4-b]pyridin-3-yl)methylene]-7-(piperidin-4-ylmethyl)benzofuran-3(2H)-one] | 0.7 | – | – | – | –
5 | COc1ccc2c(c1CC1CCNCC1F)O/C(=C\c1n[nH]c3ncccc13)C2=O (centres unmarked) [Compound 18, (Z)-2-[(1H-pyrazolo[3,4-b]pyridin-3-yl)methylene]-7-[(3-fluoropiperidin-4-yl)methyl]-6-methoxybenzofuran-3(2H)-one] | 0.35 | 420 | 220 | 250 | –
6 | COc1ccc2c(c1CN1CC3CCC(C1)N3)O/C(=C\c1n[nH]c3ncccc13)C2=O [Compound 25, (Z)-2-[(1H-pyrazolo[3,4-b]pyridin-3-yl)methylene]-7-[(3,8-diazabicyclo[3.2.1]octan-3-yl)methyl]-6-methoxybenzofuran-3(2H)-one] | 0.29 | – | – | – | IC50 [5]: 9700 nM; IC50 [6]: 1800 nM; IC50 [7]: 2800 nM; IC50 [8]: 3600 nM; IC50 [9]: 2900 nM
7 | CN[C@H]1CCN(Cc2c(OC)ccc3c2O/C(=C\c2n[nH]c4ncccc24)C3=O)C1 [Compound 26, (S,Z)-2-[(1H-pyrazolo[3,4-b]pyridin-3-yl)methylene]-6-methoxy-7-{[3-(methylamino)pyrrolidin-1-yl]methyl}benzofuran-3(2H)-one] | 1.1 | – | – | – | –
8 | COc1ccc2c(c1C(C)CN1CCNCC1)O/C(=C\c1n[nH]c3ncccc13)C2=O (centres unmarked) [Compound 27, (Z)-2-[(1H-pyrazolo[3,4-b]pyridin-3-yl)methylene]-6-methoxy-7-[1-(piperazin-1-yl)propan-2-yl]benzofuran-3(2H)-one] | 6.4 | – | – | – | –
9 | O=C1/C(=C/c2n[nH]c3ncccc23)Oc2c1ccc(Cl)c2CC1CCNCC1 [Compound 28, (Z)-2-[(1H-pyrazolo[3,4-b]pyridin-3-yl)methylene]-6-chloro-7-(piperidin-4-ylmethyl)benzofuran-3(2H)-one] | 1.3 | – | – | – | –

Second part, led by results:

Row | IC50 [1] [nM] | IC50 ([2]; Homo sapiens, PANC-1, 72 h) [nM] | IC50 ([3]; Homo sapiens, MIA PaCa-2) [nM] | IC50 ([4]; Homo sapiens, L3.6pl, 72 h) [nM] | Compound | further results
10 | 2.8 | – | – | – | COc1ccc2c(c1CN1CCNCC1)O/C(=C\c1n[nH]c3nc(C)ccc13)C2=O [Compound 7, (Z)-6-methoxy-2-[(6-methyl-1H-pyrazolo[3,4-b]pyridin-3-yl)methylene]-7-(piperazin-1-ylmethyl)benzofuran-3(2H)-one] | –
11 | 38 | 12000 | 3500 | 3500 | COc1ccc2c(c1CN1CCNC[C@H]1C)O/C(=C\c1n[nH]c3ncccc13)C2=O [Compound 8, (R,Z)-2-[(1H-pyrazolo[3,4-b]pyridin-3-yl)methylene]-6-methoxy-7-[(2-methylpiperazin-1-yl)methyl]benzofuran-3(2H)-one] | –
12 | 8.4 | 12000 | 3000 | 4000 | COc1ccc2c(c1CN1CCNC[C@@H]1C)O/C(=C\c1n[nH]c3ncccc13)C2=O [Compound 9, (S,Z)-2-[(1H-pyrazolo[3,4-b]pyridin-3-yl)methylene]-6-methoxy-7-[(2-methylpiperazin-1-yl)methyl]benzofuran-3(2H)-one] | –
13 | 7.9 | 8200 | 3200 | 3500 | COc1ccc2c(c1CN1CCN[C@H](C)C1)O/C(=C\c1n[nH]c3ncccc13)C2=O [Compound 12, (R,Z)-2-[(1H-pyrazolo[3,4-b]pyridin-3-yl)methylene]-6-methoxy-7-[(3-methylpiperazin-1-yl)methyl]benzofuran-3(2H)-one] | –
14 | 1 | – | – | – | COc1ccc2c(c1CN1CC[C@H](N)C1)O/C(=C\c1n[nH]c3ncccc13)C2=O [Compound 14, (S,Z)-2-[(1H-pyrazolo[3,4-b]pyridin-3-yl)methylene]-7-[(3-aminopyrrolidin-1-yl)methyl]-6-methoxybenzofuran-3(2H)-one] | –
15 | 1.6 | – | – | – | COc1ccc2c(c1CN1CC[C@@H](N)C1)O/C(=C\c1n[nH]c3ncccc13)C2=O [Compound 15, (R,Z)-2-[(1H-pyrazolo[3,4-b]pyridin-3-yl)methylene]-7-[(3-aminopyrrolidin-1-yl)methyl]-6-methoxybenzofuran-3(2H)-one] | –
16 | 2.2 | – | – | – | O=C1/C(=C/c2n[nH]c3ncccc23)Oc2c1ccc(OC(F)F)c2CC1CCNCC1 [Compound 17, (Z)-2-[(1H-pyrazolo[3,4-b]pyridin-3-yl)methylene]-6-(difluoromethoxy)-7-(piperidin-4-ylmethyl)benzofuran-3(2H)-one] | IC50 [5]: 9700 nM; IC50 [6]: 3200 nM; IC50 [7]: 9300 nM; IC50 [8]: 18000 nM; IC50 [9]: 6200 nM
17 | 0.7 | – | – | – | COc1ccc2c(c1CC1CCNCC1F)O/C(=C\c1n[nH]c3ncccc13)C2=O (centres unmarked) [Compound 19, (Z)-2-[(1H-pyrazolo[3,4-b]pyridin-3-yl)methylene]-7-[(3-fluoropiperidin-4-yl)methyl]-6-methoxybenzofuran-3(2H)-one] | IC50 [2]: 330 nM; IC50 [3]: 220 nM; IC50 [4]: 300 nM
18 | 1.3 | – | – | – | CCOc1ccc2c(c1C(C)N1CCNCC1)O/C(=C\c1n[nH]c3ncccc13)C2=O (centres unmarked) [Compound 22, (Z)-2-[(1H-pyrazolo[3,4-b]pyridin-3-yl)methylene]-6-ethoxy-7-[1-(piperazin-1-yl)ethyl]benzofuran-3(2H)-one] | IC50 [5]: 2700 nM; IC50 [6]: 1300 nM; IC50 [7]: 1800 nM; IC50 [8]: 2500 nM; IC50 [9]: 2800 nM
19 | 0.62 | – | – | – | CC(c1c(OCC2CC2)ccc2c1O/C(=C\c1n[nH]c3ncccc13)C2=O)N1CCNCC1 (centres unmarked) [Compound 23, (Z)-2-[(1H-pyrazolo[3,4-b]pyridin-3-yl)methylene]-6-(cyclopropylmethoxy)-7-[1-(piperazin-1-yl)ethyl]benzofuran-3(2H)-one] | IC50 [5]: 8000 nM; IC50 [6]: 3800 nM; IC50 [7]: 5300 nM; IC50 [8]: 4200 nM; IC50 [9]: 9800 nM
20 | 12 | – | – | – | C=C(CN1CCNCC1)c1c(OC)ccc2c1O/C(=C\c1n[nH]c3ncccc13)C2=O [Compound 24, (Z)-2-[(1H-pyrazolo[3,4-b]pyridin-3-yl)methylene]-6-methoxy-7-[3-(piperazin-1-yl)prop-1-en-2-yl]benzofuran-3(2H)-one] | –
21 | 4.5 | – | – | – | O=C1/C(=C/c2n[nH]c3ncccc23)Oc2c1ccc(F)c2CC1CCNCC1 [Compound 29, (Z)-2-[(1H-pyrazolo[3,4-b]pyridin-3-yl)methylene]-6-fluoro-7-(piperidin-4-ylmethyl)benzofuran-3(2H)-one] | IC50 [5]: 3300 nM; IC50 [6]: 3500 nM; IC50 [7]: 6800 nM; IC50 [8]: 3900 nM; IC50 [9]: 3800 nM
22 | 0.96 | – | – | – | COc1ccc2c(c1CN1CCC[C@@H]1CN)O/C(=C\c1n[nH]c3ncccc13)C2=O [Compound 31, (R,Z)-2-[(1H-pyrazolo[3,4-b]pyridin-3-yl)methylene]-7-{[2-(aminomethyl)pyrrolidin-1-yl]methyl}-6-methoxybenzofuran-3(2H)-one] | –
